One compound from patent US20130315849A1, “USE OF 13-HYDROXY-9,11-OCTADECADIENOIC ACID FOR TANNING HUMAN SKIN” (EVONIK GOLDSCHMIDT GMBH, priority 2010, published 2013) can be followed below.

For test [1], the system named is IL-6. Put plainly: UV-stimulated induction of IL-6 gene expression in keratinocytes (qRT-PCR). It counts as cell-based, human. Conditions: NHEKs, UV-B exposed, treated with 13-HODE as in Example 1; UV alone induction factor 10.1. The source says:
(§1) In the present example, the effect of 13-HODE on the expression of various proinflammatory marker genes in UV-B-stimulated keratinocytes (normal human epidermal keratinocytes, NHEKs) was investigated. The experimental procedure was largely identical to the procedure described in Example 1. Differences consisted merely in the selection of the gene-specific primers for carrying out the quantitative Real-Time PCR.
A general note: In qPCR the cycle at which signal appears reflects the starting amount.

The subject of test [2] is POMC. As to the kind of experiment: Basal (not UV-induced) POMC gene expression in keratinocytes (qRT-PCR). It counts as cell-based, human. Conditions: NHEKs, 10 μg/ml 13-HODE, no UV, 24 h + 24 h; standardized to 18S rRNA. Here is the method: In the present example, the effect of 13-HODE on the POMC gene expression was investigated in keratinocytes which, in contrast to Example 1, have not been stimulated by prior UV exposure. For this purpose, firstly primary human epidermal keratinocytes were prepared from neonatal foreskin. The procedure is described in the following publications: Grether-Beck et al., J Invest Dermatol 2005, 125: 545-553; Grether-Beck et al., Exp Dermatol 2008, 17: 771-779. […]
The isolation of the whole-RNA and also the subsequent analysis of the gene expression by means of quantitative Real Time PCR (qRT-PCR) was carried out as described previously (Grether-Beck et al., J Invest Dermatol 2005, 125: 545-553; Grether-Beck et al., Exp Dermatol 2008, 17: 771-779). […] The RNA concentration was determined by means of photometric measurement at 260/280 nm (Biophotometer, Eppendorf, Germany). […] Besides the POMC expression, the expression of the 18s rRNA gene was also quantitatively determined as a reference. […]
The PCR reactions were carried out on an Opticon 1 (MJ Research, Waltham, Mass., USA). For all PCRs, double determinations of the biological triplicates were carried out, and for the evaluation averages of all measurements were calculated. […]

For test [3], the system named is human skin. As to the kind of experiment: Human in vivo study, maintenance of the skin tan (colorimetric skin colour). Conditions: 39 people, forearm, twice daily for 56 days, formulations with 0.1, 0.4, 1.0% 13-HODE vs formulation without. Here is the method:
In order to test to what extent 13-HODE has an influence on maintaining the skin tan, the maintenance of the summer tan under the influence of 13-HODE in test formulations was investigated in a clinical study. The study was carried out over a period of 8 weeks from mid-September to mid-November in Germany. The subject of the investigation was the skin colour by means of colorimetric measurements using a Skin-Colorimeter® CL 400 from Courage+Khazaka electronic GmbH, Cologne, Germany. The measurements were made in each case on the inside of the left and right forearm on a defined area measuring 3 cm×3 cm at a distance of 11-14 cm from the wrist. The average value, which resulted from the individual values of six to nine repeat measurements, was registered. 39 people aged 21-55 years participated, of which 28 were female and 11 male. In each case, the starting value of the skin colour TO was determined prior to the treatment and the value T8 was determined after treatment for 56 days with test formulations. The application frequency was twice daily, morning and evening. The test persons were given one formulation for the left arm and one for the right arm (formulation A, B, C, D; as per the table below).

The test system of test [4] is TNF-α. As to the kind of experiment: UV-stimulated induction of TNF-α gene expression in keratinocytes (qRT-PCR). Conditions: NHEKs, UV-B exposed, treated with 13-HODE as in Example 1; UV alone induction factor 7.4. Type of test: cell-based, human.
Text: as §1

In test [5] the test system is POMC. Put plainly: UV-B-induced POMC gene expression in keratinocytes (qRT-PCR). Type of test: cell-based, human. Conditions: NHEKs, 3 μg/ml 13-HODE, 160 J/m^2 UV-B, harvest 6 h after exposure; standardized to 18S rRNA; UV alone factor 1.8; p<0.01. As for the experimental part: In the present example, the effect of 13-HODE on the POMC gene expression in UV-B-stimulated keratinocytes (normal human epidermal keratinocytes, NHEKs) was investigated. For this purpose, firstly primary human epidermal keratinocytes were prepared from neonatal foreskin. The procedure is described in the following publications: Grether-Beck et al., J Invest Dermatol 2005, 125: 545-553; and Grether-Beck et al., Exp Dermatol 2008, 17: 771-779. […]
After cultivation for 24 hours, the cells were exposed to a dose of 160 J/m^2 of UV-B radiation. […] The emitted power was determined using an IL 1700 Research Radiometer and SEE 240 UV-B photodetector (International Light Inc., Newbury Port, Mass.) and was 2.4 W/m^2 at a distance of 22 cm. […]
Isolation of whole-RNA and subsequent analysis of the gene expression by means of quantitative Real Time PCR (qRT-PCR) was carried out as described previously (Grether-Beck et al., J Invest Dermatol 2005, 125: 545-553; Grether-Beck et al., Exp Dermatol 2008, 17: 771-779). […] The RNA concentration was determined by means of photometric measurement at 260/280 nm (Biophotometer, Eppendorf, Germany). […] Besides the POMC expression, the expression of the 18s rRNA gene was also determined quantitatively as a reference. […]

The test system of test [6] is IL-8. As to the kind of experiment: UV-stimulated induction of IL-8 gene expression in keratinocytes (qRT-PCR). Type of test: cell-based, human. The settings on record: NHEKs, UV-B exposed, treated with 13-HODE as in Example 1; UV alone induction factor 11.2.
Text: as §1

Test [7] has as its system COX2. Put plainly: UV-stimulated induction of COX2 gene expression in keratinocytes (qRT-PCR). It counts as cell-based, human. The settings on record: NHEKs, UV-B exposed, treated with 13-HODE as in Example 1; UV alone induction factor 2.5.
Text: as §1

In the case of `CCCCCC(O)C=CC=CCCCCCCCC(=O)O` (centres unmarked) [13-HODE, 13-hydroxy-9,11-octadecadienoic acid], in test [1], the “expression level of IL-6 in UV-exposed cells” value is recorded as “considerably reduced expression level”. Moreover, the “basal (not UV-stimulated) POMC expression compared to the control treated with the vehicle (DMSO)” value in test [2] was found to be 1.2 fold. Moreover, in test [3], the “decrease in the blue-yellow parameter b* of the skin colour” value was “reduced to differing degrees” and the “increase in the parameter ITA° of the skin colour” value was “reduced to differing degrees”. The “expression level of TNF-α in UV-exposed cells” value in test [4] is “considerably reduced expression level”. Also, the “POMC expression increased by a factor compared to the untreated control” value in test [5] was 4.9. Moreover, the “expression level of IL-8 in UV-exposed cells” value in test [6] is “considerably reduced expression level”. In test [7], the “expression level of COX2 in UV-exposed cells” value is on record as “considerably reduced expression level”.
